Reference: patent publication US10195185B2, “3-(1H-imidazo[4,5-C]pyridin-2-yl)-1H-pyrazolo[4,3-B]pyridines and therapeutic uses thereof” (Samumed, LLC, priority 2015, dated 2019)

Experiments:
Format in all cases: cell-based
[1] = test system: SW480 colon cancer cells; test: Cell viability assay (CellTiter-Blue), four days; conditions: Homo sapiens, 96 h; for inhibition at 10 µM: read-out: percent inhibition at 10 μM (given for EC50 of >10 μM); for EC50: CellTiter-Blue cell viability
Method in brief: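 4-day exposure, 37 °C/5% CO2; ~2×10^3 SW480 cells/well; 8-pt 1:3 curve, 10–0.0045 μM, duplicates vs DMSO controls. Resazurin→resorufin fluorescence readout, ~3 h. EC50 by nonlinear fit; if >10 μM, % inhibition at 10 μM reported.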

[2] = test system: Wnt activity (Wnt-responsive human Sp5 promoter, TCF/LEF binding sites) in SW480 colon carcinoma cells; test: Wnt activity screening assay: Sp5-Luc luciferase reporter gene in SW480 cells; conditions: for EC50: 10-point dose-response from 10 μM, incubated overnight; for inhibition at 10 µM: given for EC50 of >10 μM, read-out: percent inhibition at 10 μM
Method in brief: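 First, hygromycin-selected SW480 Sp5-Luc reporter cells are seeded in medium with 1% fetal bovine serum and exposed overnight to compound (up to 10 μM, 0.1% DMSO). Next, luciferase signal is read by luminescence. Finally, EC50 is fitted, or percent inhibition at 10 μM is reported above 10 μM.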

[3] = test system: Primary human fibroblasts derived from IPF patients (LL29 cells) treated with TGF-β1; test: Inhibition of the fibrotic process: αSMA staining in TGF-β1 treated fibroblasts; conditions: Fibroblast, 96 h, LL29 fibroblasts treated with TGF-β1, 4 days; for inhibition at 10 µM: read-out: percent inhibition in brackets beside EC50 >10 μM
Method in brief: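 Read-out: fraction of αSMA-positive cells by high-content imaging, SYTOX-stained dead cells excluded, normalized to TGF-β1/DMSO wells. Cells got compound (10 μM–[…], 11 points) plus TGF-β1 20 ng/mL for 4 days. EC50 from triplicate curves; above 10 μM, % inhibition at 10 μM given.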

| EC50 [1] [µM] | EC50 [2] [µM] | SMILES | inhibition at 10 µM [1] [%] | EC50 [3] [µM] | inhibition at 10 µM [2] [%] | inhibition at 10 µM [3] [%] |
| --- | --- | --- | --- | --- | --- | --- |
| > 10 | 0.421 | COc1cccc(-c2nccc3[nH]c(-c4n[nH]c5ccc(-c6cccnc6)nc45)nc23)c1 [Compound 994, 3-(4-(3-Methoxyphenyl)-1H-imidazo[4,5-c]pyridin-2-yl)-5-(pyridin-3-yl)-1H-pyrazolo[4,3-b]pyridine] | 0 | 4.71 |  |  |
| 1.99 | 3.89 | CN(C)c1cncc(-c2ccc3[nH]nc(-c4nc5c(N6CCCCC6)nccc5[nH]4)c3n2)c1 [Compound 175, N,N-Dimethyl-5-(3-(4-(piperidin-1-yl)-1H-imidazo[4,5-c]pyridin-2-yl)-1H-pyrazolo [4,3-b]pyridin-5-yl)pyridin-3-amine] |  | 2.4 |  |  |
| > 10 | > 10 | COc1cccc(-c2nccc3[nH]c(-c4n[nH]c5ccc(-c6cncc(NC(=O)Cc7ccccc7)c6)nc45)nc23)c1 [Compound 1000, N-(5-(3-(4-(3-methoxyphenyl)-1H-imidazo[4,5-c]pyridin-2-yl)-1H-pyrazolo [4,3-b]pyridin-5-yl)pyridin-3-yl)-2-phenylacetamide] | 25.5 | 2.55 | 31.1 |  |
| > 10 | > 10 | CC(C)(C)CC(=O)Nc1cncc(-c2ccc3[nH]nc(-c4nc5cnccc5[nH]4)c3n2)c1 [Compound 268, N-(5-(3-(1H-Imidazo[4,5-c]pyridin-2-yl)-1H-pyrazolo[4,3-b]pyridin-5-yl)pyridin-3-yl)-3,3-dimethylbutanamide] | 0 | > 10 | 9.5 | 0 |
| > 10 | > 10 | Cc1cn(-c2nccc3[nH]c(-c4n[nH]c5ccc(-c6cncc(NC(=O)C(C)(C)C)c6)nc45)nc23)cn1 [Compound 204, N-(5-(3-(4-(4-Methyl-1H-imidazol-1-yl)-1H-imidazo[4,5-c]pyridin-2-yl)-1H-pyrazolo[4,3-b]pyridin-5-yl)pyridin-3-yl)pivalamide] | 0 | > 10 | 21 | 8.1 |

Continued, compound first:

| SMILES | EC50 [1] [µM] | EC50 [2] [µM] | inhibition at 10 µM [1] [%] | EC50 [3] [µM] | inhibition at 10 µM [2] [%] | inhibition at 10 µM [3] [%] |
| --- | --- | --- | --- | --- | --- | --- |
| Nc1cncc(-c2ccc3[nH]nc(-c4nc5c(-c6ccccc6F)nccc5[nH]4)c3n2)c1 [Compound 59, 5-(3-(4-(2-Fluorophenyl)-1H-imidazo[4,5-c]pyridin-2-yl)-1H-pyrazolo[4,3-b]pyridin-5-yl)pyridin-3-amine] | > 10 | > 10 | 0 | > 10 | 27.7 | 0 |
| Cc1cn(-c2nccc3[nH]c(-c4n[nH]c5ccc(-c6cncc(NC(=O)CC(C)C)c6)nc45)nc23)cn1 [Compound 198] | 8.48 | 3.98 |  | > 10 |  | 4.5 |
| FC1(F)CCN(Cc2cncc(-c3ccc4[nH]nc(-c5nc6c(-c7ccsc7)nccc6[nH]5)c4n3)c2)C1 [Compound 306, 5-(5-((3,3-difluoropyrrolidin-1-yl)methyl)pyridin-3-yl)-3-(4-(thiophen-3-yl)-1H-imidazo[4,5-c]pyridin-2-yl)-1H-pyrazolo[4,3-b]pyridine] | 1.12 | 1.01 |  | 1.24 |  |  |
| Fc1ccccc1-c1nccc2[nH]c(-c3n[nH]c4ccc(-c5cncc(CNCC6CCCC6)c5)nc34)nc12 [Compound 81, 1-Cyclopentyl-N-((5-(3-(4-(2-fluorophenyl)-1H-imidazo[4,5-c]pyridin-2-yl)-1H-pyrazolo[4,3-b]pyridin-5-yl)pyridin-3-yl)methyl)methanamine] | 1.08 | 1.11 |  | 1.28 |  |  |
